From patent publication US11229205B2, “Herbicidally active pyridyl-/pyrimidyl-pyrazine derivatives” (Syngenta Participations AG, priority 2017, dated 2022) come the findings set out here.

Molecules are shown by their SMILES.

Holding throughout (type): in vivo
In assay [1] the test system is Echinochloa crus-galli (ECHCG). Description: Pre-emergence herbicidal activity (B1). As to conditions: Test 1a; pre-emergence application; rate 1000 g/ha; evaluated after 13 days; score 0-5. The method, then:
(§1) Seeds of a variety of test species were sown in standard soil in pots: Triticum aestivium (TRZAW), Avena fatua (AVEFA), Alopecurus myosuroides (ALOMY), Echinochloa crus-galli (ECHCG), Lolium perenne (LOLPE), Zea Mays (ZEAMX), Abutilon theophrasti (ABUTH), Amaranthus retroflexus (AMARE) and Setaria faberi (SETFA). […] The test plants were then grown in a glasshouse under controlled conditions (at 24/16° C., day/night; 14 hours light; 65% humidity) and watered twice daily. After 13 days, the test was evaluated (5=total damage to plant; 0=no damage to plant).

The test system of assay [2] is Zea Mays (ZEAMX). Description: Pre-emergence herbicidal activity (B1). To be noted: Test 1a; pre-emergence application; rate 1000 g/ha; evaluated after 13 days; score 0-5. The protocol:
as §1

The test system of assay [3] is Lolium perenne (LOLPE). The experiment in a line: Pre-emergence herbicidal activity (B1). To be noted: Test 1a; pre-emergence application; rate 1000 g/ha; evaluated after 13 days; score 0-5. The method, then: as §1
The subject of assay [4] is Amaranthus retroflexus (AMARE). Description: Pre-emergence herbicidal activity (B1). As to conditions: Test 1a; pre-emergence application; rate 1000 g/ha; evaluated after 13 days; score 0-5. The protocol:
as §1

Assay [5] has as its system Abutilon theophrasti (ABUTH). The experiment in a line: Pre-emergence herbicidal activity (B1). To be noted: Test 1a; pre-emergence application; rate 1000 g/ha; evaluated after 13 days; score 0-5. The method, then:
as §1

Assay [6] relates to Setaria faberi (SETFA). The experiment in a line: Pre-emergence herbicidal activity (B1). As to conditions: Test 1a; pre-emergence application; rate 1000 g/ha; evaluated after 13 days; score 0-5. The method, then:
as §1

Assay [7] concerns Echinochloa crus-galli (ECHCG). The experiment in a line: Post-emergence herbicidal activity (B2). To be noted: Test B2a; post-emergence application; rate 1000 g/ha; evaluated after 13 days; score 0-5. The protocol:
as §1

Assay [8] deals with Zea Mays (ZEAMX). Description: Post-emergence herbicidal activity (B2). As to conditions: Test B2a; post-emergence application; rate 1000 g/ha; evaluated after 13 days; score 0-5. The protocol:
as §1

The subject of assay [9] is Lolium perenne (LOLPE). The experiment in a line: Post-emergence herbicidal activity (B2). As to conditions: Test B2a; post-emergence application; rate 1000 g/ha; evaluated after 13 days; score 0-5. The protocol: as §1
Assay [10] relates to Amaranthus retroflexus (AMARE). The experiment in a line: Post-emergence herbicidal activity (B2). As to conditions: Test B2a; post-emergence application; rate 1000 g/ha; evaluated after 13 days; score 0-5. The protocol: as §1
Assay [11] relates to Abutilon theophrasti (ABUTH). The experiment in a line: Post-emergence herbicidal activity (B2). As to conditions: Test B2a; post-emergence application; rate 1000 g/ha; evaluated after 13 days; score 0-5. The protocol: as §1
Assay [12] relates to Setaria faberi (SETFA). The experiment in a line: Post-emergence herbicidal activity (B2). To be noted: Test B2a; post-emergence application; rate 1000 g/ha; evaluated after 13 days; score 0-5. The method, then: as §1

Take `Cc1nc(-c2cncnc2)cnc1N` [Compound G1]: the “damage to plant, ECHCG” value in [1] and in [7] was 1 throughout. Besides, the “damage to plant, ZEAMX” value turned out to be 1 in the assay with Zea Mays (ZEAMX) [2] and 2 in the assay on Zea Mays (ZEAMX) [8]. The “damage to plant, LOLPE” value with Lolium perenne (LOLPE) [3] is recorded as 0; with Lolium perenne (LOLPE) [9], 1. Also, the figures for the “damage to plant, AMARE” value in assay [4] and in assay [10] were 0 and 2, respectively. In addition, the “damage to plant, ABUTH” value in assay [5] was 0; in assay [11] it was 1. Besides, the “damage to plant, SETFA” value in the assay on Setaria faberi (SETFA) [6] and in the assay on Setaria faberi (SETFA) [12] was 2 each time.
